According to PubChem BioAssay (NCI):
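Each compound was tested at five concentrations against cells in 96-well plates for 48 hours. GI50 = concentration required for 50% inhibition of growth. TGI is the concentration that stops growth completely.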

Tests used:
Assay in all cases: NCI anticancer screen, dose series, 48 h
[1] = system: K-562 leukemia
[2] = system: HOP-92 NSCLC
[3] = system: M14 melanoma
[4] = system: SK-MEL-2 melanoma
[5] = system: A549 NSCLC
[6] = system: RXF 393 renal
[7] = system: CCRF-CEM leukemia
[8] = system: SNB-19 CNS
[9] = system: SR leukemia
[10] = system: HS 578T breast

Row | Structure (SMILES) | TGI [1] | TGI [2] | TGI [3] | TGI [4] | TGI [5] | TGI [6] | TGI [7] | TGI [8] | TGI [9] | GI50 [1] | TGI [10] | GI50 [2] | GI50 [3] | GI50 [4] | GI50 [9] | GI50 [5] | GI50 [7] | GI50 [10] | GI50 [6] | GI50 [8]
1 | CCOC(=O)[C@@]12C(C)=CC(=O)O[C@]1(C)C1C(=O)NC(=O)C12 (some centres undefined) | > 100 µM | > 100 µM | > 100 µM | > 100 µM | > 100 µM | > 100 µM | > 100 µM | > 100 µM | – | – | – | – | – | – | – | – | – | – | – | –
2 | Cc1cc(Cl)cc2c1NC(=O)C2(O)CC(=O)c1ccc(Br)cc1 (centres undefined) | > 100 µM | > 100 µM | > 100 µM | > 100 µM | > 100 µM | 56.9 µM | 42.7 µM | > 100 µM | – | – | – | – | – | – | – | – | – | – | – | –
3 | O=C(c1ccccc1)c1nnn(Cc2ccccc2Cn2nnc(C(=O)c3ccccc3)c2C(=O)c2ccccc2)c1C(=O)c1ccccc1 | > 100 µM | > 100 µM | > 100 µM | > 100 µM | > 100 µM | – | > 100 µM | > 100 µM | > 100 µM | – | – | – | – | – | – | – | – | – | – | –
4 | Cc1ccc(N2C(=O)/C(=C/c3ccc(N(CCC#N)CCC#N)cc3)N=C2COc2ccc(Cl)cc2Cl)cc1 | > 100 µM | – | > 100 µM | > 100 µM | > 100 µM | > 100 µM | > 100 µM | > 100 µM | > 100 µM | – | – | – | – | – | – | – | – | – | – | –
5 | Brc1cc(C2OCCCO2)ccc1OCc1ccccc1 | > 100 µM | > 100 µM | > 100 µM | > 100 µM | > 100 µM | > 100 µM | > 100 µM | > 100 µM | – | – | – | – | – | – | – | – | – | – | – | –
6 | CN1CCC(c2c(O)cc(O)c3c(=O)cc(-c4ccccc4Cl)oc23)C(O)C1 (centres undefined) | > 100 µM | 0.337 µM | 0.236 µM | – | > 100 µM | 0.0312 µM | 19.3 µM | > 100 µM | – | 0.297 µM | – | – | – | – | – | – | – | – | – | –
7 | CC1=NN(c2ccccc2)C(=O)C12[C@H](c1ccccc1)C2(C#N)C#N (some centres undefined) | 6.12 µM | 7.81 µM | 3.14 µM | 16.7 µM | 31.9 µM | 14.6 µM | 2.78 µM | 29.5 µM | – | – | – | – | – | – | – | – | – | – | – | –
8 | O=C1CC(c2cccc(Cl)c2)Oc2ccccc21 (centres undefined) | 6.4 µM | 42.2 µM | 36 µM | 35.6 µM | – | – | 48.4 µM | 30.8 µM | – | – | 61.8 µM | – | – | – | – | – | – | – | – | –
9 | CCC1CCCCN1CC(C(C)=O)C(c1ccccc1)c1c(O)c2ccccc2oc1=O (centres undefined) | > 100 µM | – | > 100 µM | > 100 µM | > 100 µM | > 100 µM | > 100 µM | > 100 µM | > 100 µM | – | – | – | – | – | – | – | – | – | – | –
10 | O=[N+]([O-])c1cc(/C=N\NS(=O)(=O)c2ccc(Cl)cc2)c(O)c([N+](=O)[O-])c1 | 79.5 µM | > 100 µM | 99.6 µM | > 100 µM | > 100 µM | 91.9 µM | 78.5 µM | 79.5 µM | 45.2 µM | – | – | – | – | – | – | – | – | – | – | –
11 | COC(=O)/C(C#N)=C1\CCC(OC)N1C (centres undefined) | > 100 µM | – | > 100 µM | > 100 µM | > 100 µM | > 100 µM | > 100 µM | > 100 µM | – | – | – | – | – | – | – | – | – | – | – | –
12 | CCCCNS(=O)(=O)c1ccc(-c2ccc3c(c2)-c2ccc(S(=O)(=O)NCCCC)cc2S3(=O)=O)cc1 | > 100 µM | 41.5 µM | 53.7 µM | 87.9 µM | 57.3 µM | 30.6 µM | > 100 µM | – | > 100 µM | – | – | – | – | – | – | – | – | – | – | –
13 | O=C1OC(=O)C23CSCC12C1C=CC3O1 (centres undefined) | > 100 µM | – | > 100 µM | > 100 µM | > 100 µM | > 100 µM | > 100 µM | > 100 µM | – | – | – | – | – | – | – | – | – | – | – | –
14 | O=c1cc[nH]cc1-c1c[nH]ccc1=O | > 100 µM | > 100 µM | > 100 µM | – | > 100 µM | > 100 µM | > 100 µM | – | – | – | – | – | – | – | – | – | – | – | – | –
15 | O=c1c2ccccc2oc2ccccc12 (tested in a mixture with another compound) | > 100 µM | – | > 100 µM | – | > 100 µM | – | > 100 µM | > 100 µM | > 100 µM | – | – | – | – | – | – | – | – | – | – | –
16 | COc1cc(Cc2c(C)cc(OC)c3[nH]c4ccccc4c23)cc2c1[nH]c1ccccc12 | > 25 µM | > 25 µM | 11.8 µM | 11.6 µM | 16.7 µM | – | > 25 µM | > 25 µM | > 25 µM | 7.31 µM | – | 7.63 µM | 5.12 µM | 3.97 µM | 7.77 µM | 5.73 µM | 8.59 µM | – | – | –
17 | CC(C)(C)c1ccc(C2CC(=O)C3=C(C2)Nc2ccccc2N(C(=O)c2ccccc2Cl)C3c2ccc(F)cc2)cc1 (centres undefined) | – | > 100 µM | > 100 µM | – | > 100 µM | > 100 µM | > 100 µM | > 100 µM | – | – | > 100 µM | > 100 µM | > 100 µM | – | – | > 100 µM | > 100 µM | > 100 µM | > 100 µM | > 100 µM
18 | CCCC(O)c1cn(-c2cccc(S(=O)(=O)O)c2)nn1 (centres undefined) | > 100 µM | > 100 µM | > 100 µM | > 100 µM | > 100 µM | > 100 µM | > 100 µM | > 100 µM | – | – | – | – | – | – | – | – | – | – | – | –
19 | O=C(O)c1c2c(cc3c(=O)c4ccccc4[nH]c13)CCCC2 | – | > 100 µM | – | > 100 µM | > 100 µM | > 100 µM | > 100 µM | > 100 µM | > 100 µM | – | – | – | – | – | – | – | – | – | – | –
20 | Fc1ccc2c(c1)C1=C(CCC2)C(c2ccc(Cl)cc2)NC(=S)N1 (centres undefined) | > 100 µM | 73.9 µM | > 100 µM | – | > 100 µM | > 100 µM | > 100 µM | > 100 µM | – | 32.4 µM | > 100 µM | 16.7 µM | 40.9 µM | – | – | 20.7 µM | 31.8 µM | 50.5 µM | 81.4 µM | 77.9 µM
21 | COc1ccc(C2NN=C3c4ccccc4CCC32)cc1 (centres undefined) | > 100 µM | > 100 µM | > 100 µM | > 100 µM | 76.6 µM | > 100 µM | > 100 µM | > 100 µM | – | 2.87 µM | > 100 µM | 19.4 µM | 6.23 µM | 28.5 µM | – | 19.7 µM | 4.64 µM | 15 µM | 23.1 µM | 14.5 µM
22 | CN(C)C=N[C@@H](C(=O)O)c1ccccc1 | > 100 µM | > 100 µM | > 100 µM | – | > 100 µM | – | > 100 µM | > 100 µM | > 100 µM | – | – | – | – | – | – | – | – | – | – | –
